The record followed here is patent publication US9611256B2, “Alkyne-, azide- and triazole-containing flavonoids as modulators for multidrug resistance in cancers” (The Hong Kong Polytechnic University, priority 2012, dated 2017).

One data set can be described thus: in vitro. As to conditions: mouse.
Another data set deals with T1, BCRP (Homo sapiens, UniProt Q9UNQ0).
T1 sequence (Q9UNQ0 1-655): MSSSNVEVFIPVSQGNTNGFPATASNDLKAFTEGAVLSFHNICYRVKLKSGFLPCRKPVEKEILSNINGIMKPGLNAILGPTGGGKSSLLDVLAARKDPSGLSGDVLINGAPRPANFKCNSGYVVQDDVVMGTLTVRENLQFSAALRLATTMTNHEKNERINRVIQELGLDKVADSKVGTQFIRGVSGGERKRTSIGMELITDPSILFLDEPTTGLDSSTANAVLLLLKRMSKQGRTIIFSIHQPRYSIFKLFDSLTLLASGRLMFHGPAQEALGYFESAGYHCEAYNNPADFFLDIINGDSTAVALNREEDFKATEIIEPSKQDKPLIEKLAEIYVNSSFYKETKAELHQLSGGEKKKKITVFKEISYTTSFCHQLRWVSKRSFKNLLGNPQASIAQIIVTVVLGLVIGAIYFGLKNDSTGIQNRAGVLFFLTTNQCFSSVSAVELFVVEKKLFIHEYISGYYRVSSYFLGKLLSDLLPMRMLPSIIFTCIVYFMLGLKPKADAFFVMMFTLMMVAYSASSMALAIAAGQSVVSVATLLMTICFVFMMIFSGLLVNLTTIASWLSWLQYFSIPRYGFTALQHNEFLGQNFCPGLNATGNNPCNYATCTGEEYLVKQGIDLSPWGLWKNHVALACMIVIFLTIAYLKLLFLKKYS
In words: Reversal of BCRP-mediated topotecan resistance in MCF7-MX100 cells (cell proliferation assay). Conditions: for % of reversion of sensitivity of MCF7-MX100 towards topotecan: triazole dimers at 1.0 μM; for Topotecan resistance of MCF7-MX100 Therapeutic index: (IC50 towards L929 or Raw264.7)/(EC50 for reversing drug resistance).

Data set [1] relates to P-gp, MRP1 and BCRP transporters. In words: Selectivity for ABC transporters, determined from % of reversion (Tables 1 and 2). It counts as cell-based, human. As to conditions: determined from % of reversion in Table 1 (>80% strongly, 79-50% moderately selective). An excerpt:
Generally, the triazole dimers library can be divided into mono-selective, dual-selective and multi-selective ABC transporter modulators. Table 2 summarizes the selectivity of different active triazole dimers and some monomeric azides for the ABC transporters. […] From the study, it seems that the simple monomeric azides could be a highly BCRP-selective inhibitor. […] It is possible that differently selective (mono-, dual- and multi-) inhibitors of drug transporters could be potentially useful tools for investigation of complicated drug-resistance phenotypes and eventually, for treatment of drug-resistant cancers caused by overexpression of ABC transporters.
The selectivity of active triazole compounds for various ABC transporters was determined from the Table 1. It would be considered as strongly selective if it causes >80% of reversion. It would be considered as moderately selective if it results in 79-50% of reversion. Overall, the active triazole compounds can be divided into mono-, dual- and multi-selective for P-gp, MRP1 and BCRP transporters.

For another data set, the target named is MRP1 (Homo sapiens, UniProt P33527). The data set can be described thus: Reversal of MRP1-mediated DOX resistance in 2008/MRP1 cells (cell proliferation assay). As to conditions: for DOX resistance of 2008/MRP1 Therapeutic index: (IC50 towards L929 or Raw264.7)/(EC50 for reversing drug resistance).
MRP1, sequence (P33527 whole entry): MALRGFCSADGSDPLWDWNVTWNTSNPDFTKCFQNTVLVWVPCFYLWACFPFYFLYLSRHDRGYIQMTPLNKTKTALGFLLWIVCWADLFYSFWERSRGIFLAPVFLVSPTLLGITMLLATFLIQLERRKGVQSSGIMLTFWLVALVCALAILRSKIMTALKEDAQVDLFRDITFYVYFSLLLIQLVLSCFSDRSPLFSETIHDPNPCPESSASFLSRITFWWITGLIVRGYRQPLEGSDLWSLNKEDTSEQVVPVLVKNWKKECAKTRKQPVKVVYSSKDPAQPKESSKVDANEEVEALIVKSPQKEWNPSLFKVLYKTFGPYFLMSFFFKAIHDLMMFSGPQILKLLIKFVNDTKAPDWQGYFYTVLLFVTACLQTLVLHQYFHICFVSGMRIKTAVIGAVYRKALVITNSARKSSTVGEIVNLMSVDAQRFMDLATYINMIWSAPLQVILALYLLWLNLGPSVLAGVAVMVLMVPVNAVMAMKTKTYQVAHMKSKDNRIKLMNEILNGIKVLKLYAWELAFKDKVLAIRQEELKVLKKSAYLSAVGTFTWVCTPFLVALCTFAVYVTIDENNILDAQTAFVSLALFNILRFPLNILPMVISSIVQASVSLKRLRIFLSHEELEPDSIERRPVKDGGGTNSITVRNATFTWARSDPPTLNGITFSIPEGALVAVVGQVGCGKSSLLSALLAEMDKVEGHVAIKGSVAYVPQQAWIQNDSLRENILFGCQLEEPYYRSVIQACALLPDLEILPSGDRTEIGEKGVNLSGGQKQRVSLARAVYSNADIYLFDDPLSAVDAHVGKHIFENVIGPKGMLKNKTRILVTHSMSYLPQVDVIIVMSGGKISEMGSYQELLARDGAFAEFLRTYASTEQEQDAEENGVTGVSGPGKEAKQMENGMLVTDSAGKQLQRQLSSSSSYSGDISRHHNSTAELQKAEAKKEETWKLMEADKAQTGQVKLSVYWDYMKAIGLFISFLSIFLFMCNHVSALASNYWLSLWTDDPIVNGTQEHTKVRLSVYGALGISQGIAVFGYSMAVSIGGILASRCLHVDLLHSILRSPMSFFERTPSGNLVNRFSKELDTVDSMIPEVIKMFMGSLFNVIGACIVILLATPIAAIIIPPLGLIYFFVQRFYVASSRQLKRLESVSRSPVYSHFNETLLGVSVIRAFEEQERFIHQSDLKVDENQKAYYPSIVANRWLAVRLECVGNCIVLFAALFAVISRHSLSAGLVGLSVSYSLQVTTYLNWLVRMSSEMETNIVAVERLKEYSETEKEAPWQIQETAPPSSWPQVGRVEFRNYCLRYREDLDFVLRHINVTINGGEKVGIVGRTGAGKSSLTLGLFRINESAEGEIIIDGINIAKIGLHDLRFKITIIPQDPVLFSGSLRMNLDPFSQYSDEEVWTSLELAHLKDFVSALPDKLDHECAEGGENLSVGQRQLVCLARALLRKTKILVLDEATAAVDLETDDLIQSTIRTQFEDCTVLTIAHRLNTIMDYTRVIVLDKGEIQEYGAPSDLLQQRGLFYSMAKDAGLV

`O=c1cc(-c2ccc(OCCOCCn3cc(CN(CCOc4ccc5c(=O)cc(-c6ccccc6)oc5c4)Cc4ccccc4)nn3)cc2)oc2ccccc12` [Ac16Az1, 7-(2-(Benzyl((1-(2-(2-(4-(4-oxo-4H-chromen-2-yl)phenoxy)ethoxy)ethyl)-1H-1,2,3-triazol-4-yl)methyl)amino)ethoxy)-2-phenyl-4H-chromen-4-one] had an IC50 at 5 days in the data set “in vitro” of over 100 µM. Besides, the “% of reversion of sensitivity of MCF7-MX100 towards topotecan” value at BCRP amounted to 80.0%.
Consider `O=c1[nH]c(-c2ccc(OCCCc3cn(CCOCCOc4ccc(-c5cc(=O)c6ccccc6o5)cc4)nn3)cc2)nc2ccccc12` [Ac11Az1, 2-(4-(3-(1-(2-(2-(4-(4-Oxo-4H-chromen-2-yl)phenoxy)ethoxy)ethyl)-1H-1,2,3-triazol-4-yl)propoxy)phenyl)quinazolin-4(3H)-one], for which the “Selectivity for ABC transporters (P-gp, MRP1, BCRP)” value (shortened to “Selectivity … (P-gp, MRP1, BCRP)”) in data set [1] is “mono-BCRP selectivity”. For the same molecule, the half-maximal inhibitory concentration (IC50) at 5 days in “in vitro” is over 100 µM. The “Topotecan resistance of MCF7-MX100 Therapeutic index” value at BCRP was over 3225.8.
As to `Cc1ccc2oc(-c3ccc(OCCOCCOCCn4cc(CN(CCOc5ccc6c(=O)cc(-c7ccccc7)oc6c5)Cc5ccccc5)nn4)cc3)cc(=O)c2c1` [Ac16Az3, 7-(2-(Benzyl((1-(2-(2-(2-(4-(6-methyl-4-oxo-4H-chromen-2-yl)phenoxy)ethoxy)ethoxy)ethyl)-1H-1,2,3-triazol-4-yl)methyl)amino)ethoxy)-2-phenyl-4H-chromen-4-one], the “Selectivity … (P-gp, MRP1, BCRP)” value in data set [1] is listed as “mono-MRP1 selectivity”. In the data set “in vitro”, this molecule gave an IC50 at 5 days of over 100 µM. In addition, the “DOX resistance of 2008/MRP1 Therapeutic index” value on MRP1 is listed as over 726.2.
As for `Cc1ccc2oc(-c3ccc(OCCCCc4cn(CCOCCOc5ccc(-c6oc7ccccc7c(=O)c6OCc6ccccc6)cc5)nn4)cc3)cc(=O)c2c1` [Ac5Az10, 3-(Benzyloxy)-2-(4-(2-(2-(4-(4-(4-(6-methyl-4-oxo-4H-chromen-2-yl)phenoxy)butyl)-1H-1,2,3-triazol-1-yl)ethoxy)ethoxy)phenyl)-4H-chromen-4-one], the “Selectivity … (P-gp, MRP1, BCRP)” value in data set [1] is reported as “mono-BCRP selectivity”. In “in vitro”, this molecule registered an IC50 at 5 days of over 100 µM. Moreover, on BCRP, the “Topotecan resistance of MCF7-MX100 Therapeutic index” value is over 13333.3 and the “% of reversion of sensitivity of MCF7-MX100 towards topotecan” value is given as “about 80.0%”.
With `COC(=O)c1cccc(COc2c(-c3ccc(OCCOCCN=[N+]=[N-])cc3)oc3ccccc3c2=O)c1` [Az8, Methyl 3-(((2-(4-(2-(2-azidoethoxy)ethoxy)phenyl)-4-oxo-4H-chromen-3-yl)oxy)methyl)benzoate], in data set [1], the “Selectivity … (P-gp, MRP1, BCRP)” value is given as “mono-BCRP selectivity”. Further, the half-maximal inhibitory concentration (IC50) at 5 days in “in vitro” was determined as 67.5 µM. Moreover, the “Topotecan resistance of MCF7-MX100 Therapeutic index” value on BCRP is 562.5.
Consider `O=C(/C=C/c1ccc(OCCCCc2cn(CCOCCOc3ccc(-c4cc(=O)c5ccccc5o4)cc3)nn2)cc1)c1ccc(F)cc1O` [Ac10Az1, (E)-2-(4-(2-(2-(4-(4-(4-(3-(4-Fluoro-2-hydroxyphenyl)-3-oxoprop-1-en-1-yl)phenoxy)butyl)-1H-1,2,3-triazol-1-yl)ethoxy)ethoxy)phenyl)-4H-chromen-4-one], for which the “Selectivity … (P-gp, MRP1, BCRP)” value in data set [1] was “MRP1- and BCRP-dual selectivity”. In addition, the “% of reversion of sensitivity of 2008/MRP1 towards DOX” value on MRP1 (triazole dimers at 1.0 μM) was about 54.8%.
Take `O=c1cc(-c2ccccc2)oc2cc(OCCOCCOCCn3cc(CN(CCOc4ccc5c(=O)cc(-c6ccccc6)oc5c4)Cc4ccccc4)nn3)ccc12` [Ac16Az12, 7-(2-(Benzyl((1-(2-(2-(2-((4-oxo-2-phenyl-4H-chromen-7-yl)oxy)ethoxy)ethoxy)ethyl)-1H-1,2,3-triazol-4-yl)methyl)amino)ethoxy)-2-phenyl-4H-chromen-4-one]: the “Selectivity … (P-gp, MRP1, BCRP)” value in data set [1] is on record as “mono-MRP1 selectivity”. The molecule also registered an IC50 at 5 days in the data set “in vitro” of over 100 µM. Further, the “DOX resistance of 2008/MRP1 Therapeutic index” value at MRP1 is given as over 480.8.
In “in vitro”, `O=c1cc(-c2ccc(OCCOCCn3cc(CCCOc4ccc(-c5cc(=O)c6ccc(F)cc6o5)cc4)nn3)cc2)oc2ccccc12` [Ac3Az1, 7-Fluoro-2-(4-(3-(1-(2-(2-(4-(4-oxo-4H-chromen-2-yl)phenoxy)ethoxy)ethyl)-1H-1,2,3-triazol-4-yl)propoxy)phenyl)-4H-chromen-4-one] showed an IC50 at 5 days of over 100 µM. In addition, on BCRP, the “% of reversion of sensitivity of MCF7-MX100 towards topotecan” value is listed as “about 53.3%”.
